Laboratory results: PMC11448502, “Cryo-EM structures of the human P2X1 receptor reveal subtype-specific architecture and antagonism by supramolecular ligand-binding” (Nature Communications, 2024)
Where a chain is given by its changes, count along the chain named. “And” between values parts separate entries of the source, which are not always exact repeats. Equal entries are not always repeated.

Columns and labels:
Assay in all cases: NF449 inhibition dose response (IC50), TEVC in oocytes
Assay type in all cases: cell-based
hP2X1 R292A = biological target: T1, hP2X1 R292A (Homo sapiens, UniProt P51575, R292A); details: for Normalized Current: hP2X1 R292A
T1 construct: hP2X1 mRNA that was made from linearized full-length wild-type or mutant pcDNA 3.1x; expressed in transfected cells; host or cells: Xenopus laevis oocytes (mRNA injection)
T1 sequence (P51575 1-399 R292A): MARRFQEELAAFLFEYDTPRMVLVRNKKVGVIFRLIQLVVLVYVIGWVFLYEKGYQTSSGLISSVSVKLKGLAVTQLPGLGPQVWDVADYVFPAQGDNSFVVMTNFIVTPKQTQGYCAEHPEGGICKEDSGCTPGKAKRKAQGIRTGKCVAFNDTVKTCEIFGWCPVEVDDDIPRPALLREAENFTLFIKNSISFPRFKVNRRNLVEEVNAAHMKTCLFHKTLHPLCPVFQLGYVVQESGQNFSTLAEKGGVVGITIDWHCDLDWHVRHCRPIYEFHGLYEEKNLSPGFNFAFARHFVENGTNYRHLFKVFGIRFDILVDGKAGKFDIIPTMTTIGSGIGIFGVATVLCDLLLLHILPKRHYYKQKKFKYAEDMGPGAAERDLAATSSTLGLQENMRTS
Experimental: (§1) Oocytes were purchased defolliculated from Ecocyte Bioscience in Barth’s Solution (88 mM NaCl, 1 mM KCl, 0.82 mM MgSO4, 0.33 mM Ca(NO3)2, 0.41 mM CaCl2, 2.4 mM NaHCO3, 5 mM Tris-HCl) supplemented with penicillin (100 U/mL) and streptomycin (100 µg/mL). Xenopus laevis oocytes were then injected with 50 nL of 100 ng/μL hP2X1 mRNA that was made from linearized full-length wild-type or mutant pcDNA 3.1x according to the protocol provided in the mMessage mMachine kit (Invitrogen). Injected oocytes were allowed to express for ~20 hours at 18 °C before recording was performed.
(§2) Data acquisition was performed using the Oocyte Clamp OC-725C amplifier and pClamp 8.2 software. Buffers were applied using a gravity fed RSC-200 Rapid Solution Changer that flows at ~5 mL/min. All experiments use Sutter filamented glass 10 cm in length with an inner diameter of 0.69 mm and an outer diameter of 1.2 mm to impale oocytes and clamp the holding voltage at −60 mV. Experiments were recorded in buffer containing 10 mM HEPES (pH 7.4), 140 mM NaCl, 5 mM KCl, 2 mM CaCl2, 2 mM MgCl2, and 10 mM glucose.
(§3) To test a dilution series of an antagonist at discrete concentrations, 10 µM ATP (2 mM ATP for K309A only) was first applied to evoke an initial maximum current. The oocyte was then washed with buffer for one minute, followed by one minute application of an antagonist test-concentration, and concluded by co-application of the same test concentration with 10 µM ATP (2 mM ATP for K309A). The antagonized signal was then normalized against the initial ATP excitatory signal. Each test concentration was performed in triplicate across different oocytes. The data was then fit to a nonlinear regression named “[inhibitor] vs. response – Variable slope (four parameters)” in Prism 9 to produce a sigmoidal curve and afford an IC50 value. Each singular condition was used to generate an average which is reported plus or minus its standard deviation between three discrete trials.

hP2X1 N184A = biological target: T2, hP2X1 N184A (Homo sapiens, UniProt P51575, N184A); details: for Normalized Current: hP2X1 N184A
T2 construct: hP2X1 mRNA that was made from linearized full-length wild-type or mutant pcDNA 3.1x; expressed in transfected cells; host or cells: Xenopus laevis oocytes (mRNA injection)
T2 sequence (P51575 1-399 N184A): T1 sequence (P51575 1-399 R292A) with N184A, A292R
Experimental: as §1, §2, §3

hP2X1 K136A/R139A = biological target: T3, hP2X1 K136A/R139A (Homo sapiens, UniProt P51575, K136A/R139A); details: for Normalized Current: hP2X1 K136A/R139A
T3 construct: hP2X1 mRNA that was made from linearized full-length wild-type or mutant pcDNA 3.1x; expressed in transfected cells; host or cells: Xenopus laevis oocytes (mRNA injection)
T3 sequence (P51575 1-399 K136A/R139A): T1 sequence (P51575 1-399 R292A) with K136A, R139A, A292R
Experimental: as §1, §2, §3

Compound: O=C(Nc1cc(C(=O)Nc2ccc(S(=O)(=O)O)cc2S(=O)(=O)O)cc(C(=O)Nc2ccc(S(=O)(=O)O)cc2S(=O)(=O)O)c1)Nc1cc(C(=O)Nc2ccc(S(=O)(=O)O)cc2S(=O)(=O)O)cc(C(=O)Nc2ccc(S(=O)(=O)O)cc2S(=O)(=O)O)c1 [NF449, 4,4’,4”,4’’’-(carbonylbis(imino-5,1,3-benzenetriylbis(carbonylimino)))tetrakis-benzene-1,3-disulfonic acid]
- reduction in inhibitory potency of NF449 (hP2X1 R292A; hP2X1 R292A vs wild-type): 31 fold
- Normalized Current (hP2X1 R292A; [NF449] 1.000E-06 M): 0.000000
- Normalized Current (hP2X1 R292A; [NF449] 1.600E-09 M): 1.038 and 1.012 and 0.9446
- Normalized Current (hP2X1 R292A; [NF449] 2.000E-07 M): 0.09965 and 0.08304 and 0.07993
- Normalized Current (hP2X1 R292A; [NF449] 3.200E-10 M): 1.08 and 0.9654 and 0.955
- Normalized Current (hP2X1 R292A; [NF449] 4.000E-08 M): 0.4671 and 0.3945 and 0.2595
- Normalized Current (hP2X1 R292A; [NF449] 8.000E-09 M): 0.8305 and 0.7889 and 0.7059
- reduction in inhibitory potency of NF449 (hP2X1 N184A; hP2X1 N184A vs wild-type): ~ 6 fold
- Normalized Current (hP2X1 N184A; [NF449] 1.280E-11 M): 1.058 and 0.9967 and 0.9456
- Normalized Current (hP2X1 N184A; [NF449] 1.600E-09 M): 0.7543 and 0.7296
- Normalized Current (hP2X1 N184A; [NF449] 3.200E-10 M): 0.9687 and 0.7936 and 0.7686
- Normalized Current (hP2X1 N184A; [NF449] 4.000E-08 M): 0.04235 and 0.03835 and 0.03234
- Normalized Current (hP2X1 N184A; [NF449] 6.400E-11 M): 0.9352 and 0.9156 and 0.8436
- Normalized Current (hP2X1 N184A; [NF449] 8.000E-09 M): 0.4048 and 0.3885 and 0.3164
- decrease in inhibitory potency of NF449 (hP2X1 K136A/R139A; hP2X1 K136A/R139A vs wild-type): 990 fold
- Normalized Current (hP2X1 K136A/R139A; [NF449] 1.000E-06 M): 0.4929 and 0.4694 and 0.363
- Normalized Current (hP2X1 K136A/R139A; [NF449] 2.000E-07 M): 0.8009 and 0.7536 and 0.7046
- Normalized Current (hP2X1 K136A/R139A; [NF449] 4.000E-08 M): 1.069 and 1.018 and 0.8793
- Normalized Current (hP2X1 K136A/R139A; [NF449] 6.246E-06 M): 0.148 and 0.1446 and 0.1086
- Normalized Current (hP2X1 K136A/R139A; [NF449] 8.000E-09 M): 1.104 and 1.01 and 0.886
